This is an account of results in ChEMBL document CHEMBL1201862, “PubChem BioAssay data set” (2004).

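Where inhibition never reached the appropriate level, the endpoint shown equals the highest concentration tested. Otherwise, values were interpolated linearly from a five-concentration, 48-hour dose response in 96-well plates. GI50 is the concentration that inhibits growth by half.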 The source made the active and inactive calls. Rule as the data show it: active = GI50 up to about 1.1 µM and inactive = higher.

Some test systems named below: 786-0; DMS-114; SK-MEL-28; SF-295; MOLT-4; ACHN; SW-620; UACC-62; UO-31; COLO 205; IGROV-1; SK-MEL-2; HCC 2998; SK-MEL-5; HCT-15; RXF 393; MDA-MB-231; MDA-N; DU-145; MCF7.
Test in all cases: NCI anticancer screen, dose series, 48 h

As to `CN(C)CCNC(=O)c1cccc2nc3cc(Cl)ccc3nc12`, the GI50 with 786-0 is 3.79 µM (inactive); in the assay with DMS-114 it was 1.83 µM (inactive); in the assay on SK-MEL-28 it was 2.9 µM (inactive); with SF-295, 3.25 µM (inactive); with MOLT-4, 0.378 µM (active); in the assay with ACHN, 1.02 µM (active). The GI50 in the assay on SW-620 is 1.06 µM (active); in the assay with UACC-62, 3.69 µM (inactive); in the assay with UO-31 it was 4.26 µM (inactive); in the assay on COLO 205, 1.86 µM (inactive); in the assay with IGROV-1, 5.25 µM (inactive); in the assay on SK-MEL-2 it was 2.47 µM (inactive). Further, the GI50 in the assay on HCC 2998 is 2.65 µM (inactive); with SK-MEL-5, 3.19 µM (inactive); with HCT-15 it was 2.43 µM; in the assay on RXF 393, 2.15 µM (inactive).

With `[N-]=[N+]=NC(CBr)c1cn([C@H]2C[C@H](O)[C@@H](CO)O2)c(=O)[nH]c1=O` (some centres not stated), the GI50 with 786-0, with DMS-114, with SK-MEL-28, in the assay on SF-295, with MOLT-4 and with ACHN was > 100 µM (inactive) in each case. Further, the GI50 with SW-620, in the assay with UACC-62, in the assay on UO-31, in the assay on COLO 205, in the assay on IGROV-1 and with SK-MEL-2 was > 100 µM (inactive) throughout. Also, the GI50 is > 100 µM (inactive) in the assay with HCC 2998, > 100 µM (inactive) with SK-MEL-5, greater than 100 µM in the assay on HCT-15 and > 100 µM (inactive) with RXF 393.

Regarding `N#C/C(=C\c1ccccc1O)C(N)=O`, the GI50 was > 100 µM (inactive) in the assay on 786-0; 44.6 µM (inactive) with DMS-114; > 100 µM (inactive) in the assay on SK-MEL-28; > 100 µM (inactive) in the assay with SF-295; 62.7 µM (inactive) in the assay with MOLT-4; 48.9 µM (inactive) in the assay with ACHN. For the same molecule, the GI50 with SW-620 was 76.2 µM (inactive); with UACC-62, 50.1 µM (inactive); in the assay on UO-31, 43.6 µM (inactive); in the assay on COLO 205, 61.8 µM (inactive); with IGROV-1, > 100 µM (inactive); in the assay on SK-MEL-2 it was 62.1 µM (inactive). The GI50 in the assay on HCC 2998 was > 100 µM (inactive); with SK-MEL-5 it was > 100 µM (inactive); with HCT-15 it was 87.7 µM; with RXF 393 it was 25.7 µM (inactive).

In the case of `O=C(CSc1ncnc2[nH]cnc12)c1ccccc1`, the GI50 is > 100 µM (inactive) in the assay on 786-0; > 100 µM (inactive) with DMS-114; > 100 µM (inactive) with SK-MEL-28; > 100 µM (inactive) in the assay with SF-295; > 65.6 µM (inactive) in the assay on MOLT-4; > 100 µM (inactive) with MDA-MB-231. The GI50 in the assay with MDA-N was 86.3 µM (inactive); in the assay on ACHN it was > 100 µM (inactive); with DU-145 it was > 100 µM (inactive); in the assay on SW-620, > 100 µM (inactive); in the assay with UACC-62, > 100 µM (inactive); with UO-31, > 95.7 µM (inactive). In addition, the GI50 in the assay with COLO 205 is > 91 µM (inactive); with IGROV-1, > 100 µM (inactive); with SK-MEL-2 it was > 43.2 µM (inactive); in the assay on SK-MEL-5 it was 86.3 µM (inactive); in the assay with HCT-15, greater than 100 µM; with MCF7, > 100 µM (inactive). The GI50 in the assay with RXF 393 was > 76.2 µM (inactive).

For `CN(C)C(=S)/N=c1\ss/c(=N\S(=O)(=O)c2ccccc2)n1C`, the GI50 in the assay with 786-0, in the assay with DMS-114, in the assay with SK-MEL-28, in the assay with SF-295, in the assay with MOLT-4 and in the assay on ACHN was > 100 µM (inactive) throughout. Besides, the GI50 in the assay on SW-620, in the assay on UACC-62, in the assay on UO-31, with IGROV-1, in the assay with SK-MEL-2 and in the assay on HCC 2998 was > 100 µM (inactive) each time. Also, the GI50 is > 100 µM (inactive) in the assay on SK-MEL-5, greater than 100 µM in the assay with HCT-15 and > 100 µM (inactive) in the assay with RXF 393.
